Literature values, collected in patent publication US20110223258A1 (priority 2008, published 2011).

Conditions: aqueous solution

Q: Which Stability in solution does the source give for `O=P([O-])(O)O.O=P([O-])(O)O.O=P([O-])(O)O.[Fe+3]` [Fe(H2PO4)3, iron(III) dihydrogen phosphate] here?
A: decomposes in the solution as a result of hydrolysis
